“Also recorded” adds a separate entry of the source. Read-outs that look alike come from different tables or passages of the source.
Legend:
mice [1] = conditions: cited from earlier work
mice [2] = assay: Oral gavage antinociception (% MPE) in mice; assay type: in vivo; conditions: for time of peak antinociceptive effect: oral gavage; for % MPE: oral, 5 mg/kg
Procedure: Animals are restrained by the scruff and held upright (vertically) to maintain a straight line from the mouth to the esophagus. Prior to dosing, the distance from the oral cavity to the caudal point of the sternum is gauged with the gavage needle. Using a bulb-tipped gastric gavage needle attached to a 1 mL syringe, the needle is passed along the roof of the animal's mouth and into the esophagus, stopping at the pre-measured distance. The drug is slowly injected and the needle removed. Drugs are administered in a volume of 10 mL/kg.

[3] = test system: HEK-293 cells transfected with opioid receptors (mu, delta, kappa homomers; mu-delta, mu-kappa, kappa-delta heteromers); assay: Intracellular calcium release assay (FLIPR); assay type: cell-based; conditions: HEK-293 with chimeric Δ6-Gqi4-myr, opioid receptor homomers and heteromers
Procedure: The target compounds were tested for agonist activity using an intracellular calcium release assay. Briefly, HEK-293 cells were transfected with a chimeric Δ6-Gqi4-myr protein employed to measure intracellular Ca^+2 ion release upon receptor activation. Cells stably expressing the chimeric protein were selected from transiently transfected cells in zeocin-containing medium (DMEM+10% fetal bovine serum+1% penicillin/streptomycin+[…] zeocin). Opioid receptors were transiently transfected using different combinations of DNA for heteromers (mu-delta, mu-kappa, kappa-delta) or for singly expressing homomers (mu, delta, kappa). Intracellular calcium release was measured using a FLIPR calcium kit (Molecular Devices) in a FlexStation3 apparatus. For each compound, concentration-response profiles were established by measuring the fluorescence for 90 seconds after addition of the compound and determining the peak effect (maximum-minimum). A concentration-response curve was plotted for the change in Relative Fluorescence Units (ΔRFU) vs. concentration. The calcium mobilization of the antagonist NTI and partial agonist OMI were studied.

mice [4] = assay: Antinociceptive tolerance, day 1 vs day 2 % MPE; assay type: in vivo; conditions: i.t.
Procedure: Eighty percent effective doses of OMI (4) or BOMI (6) were administered either i.c.v. or i.t. once on day 1 and again on day 2 and the % MPE determined on both days.

mice [5] = assay: Naloxone withdrawal jumping protocol (dependence); assay type: in vivo; conditions: for dependence: naloxone-precipitated
Procedure: Morphine, OMI and BOMI were tested for dependence using the naloxone withdrawal jumping protocol (Marshall, I. et al., Br. J. Pharmacol. 1969, 37, 505P-506P; and El-kadi, A. O. et al., General Pharmacology: The Vascular System 1994, 25, 1505-1510). On day one the ED80 dose was injected 3 times per day 4 hours apart using the s.c. route of administration. On day 2 two times ED80 and day 3 and 4 with four times the ED80 were injected at the same times used on day one. On the fifth day each animal received a bolus of the top dose followed three hours later by a single dose of naloxone s.c. (10 or 50 mg/kg) and placed in individual circular Plexiglas observation chambers (6.5″×9″). […] At 10 mg/kg and 50 mg/kg naloxone precipitated withdrawal in the morphine-treated animals with a mean 91.5 jumps and 99.3 jumps, respectively. The average number of jumps for both OMI and BOMI after both doses of naloxone was 1 jump.

mice [6] = assay: In vivo antagonism of OMI and BOMI antinociception by opioid antagonists; conditions: agonist administered intrathecally and intracerebroventricularly
Procedure: FIGS. 1a-1d show antagonism studies of OMI and BOMI (6) in vivo from Example 2.
OMI (Portoghese, P. S., et al., J. Med. Chem. 1990, 33, 1714-20) and BOMI were tested in vivo. […] Oral gavage of OMI and (6) produced the peak antinociceptive effect at 30 minutes; further they were taken in vivo studies in mice and challenged by antagonists such as NTI, norBNI and β-FNA. The results are depicted in FIGS. 1a-1d. […] Therefore, it was concluded that OMI and (6) both are MOR-DOR heteromer-selective agonists.

[7] = test system: thermal nociceptive responses in mice; assay: Hot water tail flick test, intrathecal injection, naive mice; assay type: in vivo
Procedure: Subjects were given an intrathecal injection of loperamide, OMI, or combination, and post-drug response were analyzed as a % of maximum possible effect, which was used to generate dose-response curves.
Thermal nociception was measured either using a warm water tail flick test or using the Hargreaves hindpaw method as described previously (Hargreaves, K. et al., Pain 32: 77-88, 1988). Briefly, animals were placed on a heated glass floor (30° C.) and a small plastic box restricted their movement. After allowing the animals to acclimate to the testing environment for a minimum of 15 minutes, a radiant heat lamp was shone on the left hindpaw until the animal withdrew the paw. Paw withdrawal latencies (PWLs) were measured by an IITC plantar stimulator analgesia meter, and a cutoff time of 20 seconds was used to prevent tissue damage. An average of 3-5 PWLs were taken, with a minimum of 30 seconds between tests.
Data Analysis: The ED50, in nanomoles with 95% confidence limits, of all agonists and combinations were calculated using the graded dose-response curve method of Tallarida and Murray (Tallarida, R. J. and Murray, R. B., Manual of pharmacological calculations with computer programs, pp. 26-31, Springer-Verlag, NY, 1987). […] Isobolographic analyses were performed using the numerical method (Tallarida, Pain 49: 93-97, 1992; Ossipov et al., Anesthesiology 86:1-9 1997). […]

[8] = test system: light-driven mEPSC frequency in spinal cord slices from Nav1.8-ChR2 mice; assay: Spinal cord slice electrophysiology: inhibition of 470 nm light-evoked mEPSCs; assay type: cell-based; conditions: increasing concentrations superfused on slice
[9] = test system: thermal nociceptive responses in naive mice; assay: Hargreaves assay, naive mice; assay type: in vivo
[10] = test system: CFA-induced hyperalgesia in mice; assay: Hargreaves assay, CFA-induced inflammatory hyperalgesia; assay type: in vivo; conditions: for ED50: Mus musculus
mice [11] = conditions: intrathecal; cited from earlier work
[12] = test system: SNI-induced allodynia in mice; assay: Spared nerve injury (SNI)-induced mechanical allodynia, electronic von Frey; conditions: subcutaneous
[13] = test system: MORs and DORs in CFA-inflamed mice; assay: Antagonism of Lo-OMI anti-hyperalgesia by opioid antagonists (Hargreaves, CFA); assay type: in vivo; conditions: intraplantar and subcutaneous; β-FNA 24 hours before, others co-administered
mice [14] = assay: Antinociceptive potency (% MPE) after i.t. or i.c.v. administration; assay type: in vivo
Procedure: OMI (4) or BOMI (6) were administered via either i.t. or i.c.v. routes and percent maximum possible antinociception (% MPE) determined at 5 or 10 min post-treatment, respectively.

[15] = naloxone s.c. 10 mg/kg after escalating s.c. dosing
[16] = naloxone s.c. 50 mg/kg after escalating s.c. dosing
[17] = Mus musculus, sc, 0.75 h, subcutaneous, CFA-naive, tested 45 minutes later, read-out: ED50
[18] = intraplantar, naive, tested 15 minutes later
[19] = sc, subcutaneous (systemic), CFA-inflamed, read-out: ED50 (anti-hyperalgesia)
[20] = topical solution on inflamed hindpaw, CFA
[21] = systemic, CFA-inflamed, loperamide + BOMI co-administered, read-out: ED50 of the drug with the other drug (loperamide or BOMI) present
[22] = intraplantar, CFA-inflamed, loperamide + BOMI co-administered

## C[C@]12N[C@H](Cc3ccccc31)c1ccccc12 [MK801]
Mice [1]; intrathecal
  ED50 for reduction in rotarod performance: 11 nmol
  reduction in rotarod performance: 80%

## CN1CC[C@]23c4c5ccc(O)c4O[C@H]2c2[nH]c4ccccc4c2C[C@@]3(O)[C@H]1C5 [OMI (4), oxymorphindole]
Mice [2]
  time of peak antinociceptive effect: 30 min
Mice [2]; 20 min
  % MPE: 38.0 ± 8.4 % MPE
Mice [2]; 30 min
  % MPE: 29.5 ± 4.5 % MPE
Mice [2]; 60 min
  % MPE: 38.5 ± 10.7 % MPE
[3]
  calcium mobilization profile: demonstrated a profile of MOR-DOR heteromer selectivity
[3]; listed as OMI
  calcium mobilization profile: selective mobilization in the MOR-DOR co-expressing cell line
Mice [4]
  antinociceptive tolerance: neither agent injected i.t. produced antinociceptive tolerance
Mice [4]; listed as OMI
  antinociceptive tolerance: did not produce tolerance
Mice [5]; [15]
  number of jumps in 10 minutes (mean): 1 jumps
Mice [5]; [16]
  number of jumps in 10 minutes (mean): 1 jumps
Mice [5]; listed as OMI
  dependence: neither OMI nor (6) produced dependence; also recorded: did not create any dependence
Mice [6]
  antagonism by β-FNA: antagonized by β-FNA
[7]
  ED50: 3.52 nmol
[8]
  inhibition of light-driven mEPSC frequency: inhibited mEPSC frequency in a concentration-dependent manner
[9]; [17]
  ED50: 5.13 mg/kg
[9]; [18]
  ED50: 33.7 nmol
[10]; [19]
  ED50: 1.12 mg/kg
[10]; intraplantar, CFA-inflamed
  ED50 (anti-hyperalgesia): 12.3 nmol
[10]; [20]
  ED50 (anti-hyperalgesia): 166 µM
Mice [11]
  interaction with the MOR agonist morphine: synergized with the MOR agonist morphine
[12]
  time of peak anti-allodynia post-injection: 1 h

## C=CC[N+]1(C)CC[C@]23c4c5ccc(O)c4O[C@H]2C(=O)CC[C@@]3(O)[C@H]1C5 (stereo partly drawn) [naloxone methiodide]
[13]
  reversal of the anti-hyperalgesic effects of Lo-OMI: significantly reversed the anti-hyperalgesic effects of Lo-OMI in a dose-dependent manner; also recorded: completely ablated the behavioral anti-hyperalgesia

## CN1CC[C@]23c4c5ccc(O)c4O[C@H]2c2c(c4ccccc4n2Cc2ccccc2)C[C@@]3(O)C1C5 [BOMI (6), (4bS,8aS,14bR)-14-benzyl-7-methyl-5,6,7,8,8a,9,14,14b-octahydro-4,8-methanobenzofuro[2,3-a]pyrido[4,3-b]carbazole-1,8a-diol]
Mice [2]
  time of peak antinociceptive effect: 30 min
Mice [2]; 20 min
  % MPE: 38.3 ± 10.4 % MPE
Mice [2]; 30 min
  % MPE: 19.6 ± 4.8 % MPE
Mice [2]; 60 min
  % MPE: 42.8 ± 6.2 % MPE
Mice [2]; 120 min
  % MPE: 38.4 ± 8.4 % MPE
[3]; listed as 6
  calcium mobilization profile: predominantly MOR-DOR heteromer-selective
[3]; listed as BOMI
  calcium mobilization profile: mixed, stimulation of MOR most active
Mice [14]; i.c.v., % MPE at 10 min
  potency relative to parent compound OMI (4): three times more potent
Mice [14]; i.t., % MPE at 5 min
  potency relative to parent compound OMI (4): 20 times
Mice [4]
  antinociceptive tolerance: neither agent injected i.t. produced antinociceptive tolerance
Mice [4]; listed as 6
  antinociceptive tolerance: did not produce tolerance
Mice [5]; [15]
  number of jumps in 10 minutes (mean): 1 jumps
Mice [5]; [16]
  number of jumps in 10 minutes (mean): 1 jumps
Mice [5]; listed as 6
  dependence: neither OMI nor (6) produced dependence
Mice [5]; listed as BOMI
  dependence: did not create any dependence
Mice [6]
  antagonism by β-FNA: antagonized by β-FNA; also recorded: antagonism of (6) by β-FNA was more significant
[10]; [19]
  ED50: 0.08 mg/kg
[10]; [21]
  ED50: 0.003 mg/kg
[10]; intraplantar, CFA-inflamed
  ED50 (anti-hyperalgesia): 0.34 nmol
[10]; [22]
  ED50 of the drug when the other drug (loperamide or BOMI) is also present: 0.02 nmol

## CN1CC[C@]23c4c5ccc(O)c4O[C@H]2[C@@H](O)C=C[C@H]3[C@H]1C5 [morphine]
Mice [5]; [15]
  number of jumps in 10 minutes (mean): 91.5 jumps
Mice [5]; [16]
  number of jumps in 10 minutes (mean): 99.3 jumps

## Oc1ccc2c3c1O[C@H]1c4[nH]c5ccccc5c4C[C@@]4(O)[C@@H](C2)N(CC2CC2)CC[C@]314 [NTI, naltrindole]
[3]
  calcium mobilization profile: devoid of any calcium mobilization; also recorded: did not show calcium mobilization in any cell line tested
[13]
  reversal of the anti-hyperalgesic effects of Lo-OMI: significantly reversed the anti-hyperalgesic effects of Lo-OMI in a dose-dependent manner

## COC(=O)/C=C/C(=O)N[C@@H]1CC[C@@]2(O)[C@H]3Cc4ccc(O)c5c4[C@@]2(CCN3CC2CC2)[C@H]1O5 [β-FNA, beta-funaltrexamine]
[13]
  reversal of the anti-hyperalgesic effects of Lo-OMI: significantly reversed the anti-hyperalgesic effects of Lo-OMI in a dose-dependent manner

## CN(C)C(=O)C(CCN1CCC(O)(c2ccc(Cl)cc2)CC1)(c1ccccc1)c1ccccc1 [loperamide]
[7]
  ED50: 5.44 nmol
[8]
  inhibition of light-driven mEPSC frequency: inhibited mEPSC frequency in a concentration-dependent manner
[9]; [17]
  ED50: 12.4 mg/kg
[9]; [18]
  ED50: 57.2 nmol
[10]; [19]
  ED50: 2.42 mg/kg
[10]; [21]
  ED50: 0.06 mg/kg
[10]; intraplantar, CFA-inflamed
  ED50 (anti-hyperalgesia): 6.37 nmol
[10]; [22]
  ED50 of the drug when the other drug (loperamide or BOMI) is also present: 0.5 nmol
[10]; [20]
  ED50 (anti-hyperalgesia): 227 µM
[12]
  time of peak anti-allodynia post-injection: 1 h

## Clc1cccc(Cl)c1N=C1NCCN1 [clonidine]
Mice [1]; literature or earlier results, route as stated
  impairment of rotarod performance / motor function: dose-dependently and fully impairs rotarod performance
